The source of these data is publication PMC6968685 (Journal of Enzyme Inhibition and Medicinal Chemistry, 2020).

Counter-ions that a name gives are not always drawn.

For `CN(C)CCNCc1ccc(-c2cc(-c3ccc(CNCCN(C)C)cc3)c3ccccc3n2)cc1` (as salt: (cooh)2) [Compound 1c, 2,4-Bis{4-[(2-dimethylaminoethyl)aminomethyl]phenyl}quinoline], the melting point fell in the range of 229 to 231 °C.
For `COc1ccc2c(-c3ccc(CNCCCN4CCN(C)CC4)cc3)nc(-c3ccc(CNCCCN4CCN(C)CC4)cc3)nc2c1` (as salt: (cooh)2) [Compound 3q, 7-Methoxy-2,4-bis{4-[(3–(4-methylpiperazin-1-yl)propyl)aminomethyl]phenyl}quinazoline], the melting point is 229 to 231 °C.
Regarding `COc1ccc2c(-c3ccc(CNCCCCN(C)C)cc3)nc(-c3ccc(CNCCCCN(C)C)cc3)nc2c1` (as salt: (cooh)2) [Compound 3m, 7-Methoxy-2,4-bis{4-[(4-dimethylaminobutyl)aminomethyl]phenyl}quinazoline], the melting point lay in the range of 216 to 218 °C.
As for `CN(C)CCCCNCc1ccc(-c2nc(-c3ccc(CNCCCCN(C)C)cc3)c3ccccc3n2)cc1` (as salt: (cooh)2) [Compound 3a, 2,4-Bis{4-[(4-dimethylaminobutyl)aminomethyl]phenyl}quinazoline], the figure is 153 to 155 °C; as for `CN1CCN(CCNCc2ccc(-c3cc(-c4ccc(CNCCN5CCN(C)CC5)cc4)c4ccccc4n3)cc2)CC1` (as salt: (cooh)2) [Compound 1f, 2,4-Bis{4-[(2–(4-methylpiperazin-1-yl)ethyl)aminomethyl]phenyl}quinoline], 240 to 242 °C; as for `COc1ccc2nc(-c3ccc(CNCCCN4CCN(C)CC4)cc3)nc(-c3ccc(CNCCCN4CCN(C)CC4)cc3)c2c1` (as salt: (cooh)2) [Compound 3k, 6-Methoxy-2,4-bis{4-[(3–(4-methylpiperazin-1-yl)propyl)aminomethyl]phenyl}quinazoline], 227 to 229 °C.
For `CN(C)CCCCNCc1ccc(-c2cc(-c3ccc(CNCCCCN(C)C)cc3)c3ccccc3n2)cc1` (as salt: (cooh)2) [Compound 1a, 2,4-Bis{4-[(4-dimethylaminobutyl)aminomethyl]phenyl}quinoline], the melting point was in the range of 258 to 260 °C.
Regarding `c1cc(CNCCN2CCOCC2)cc(-c2cc(-c3cccc(CNCCN4CCOCC4)c3)c3ccccc3n2)c1` (as salt: (cooh)2) [Compound 1t, 2,4-Bis{3-[(2-morpholinoethyl)aminomethyl]phenyl}quinoline], the melting point was in the range of 225 to 227 °C.
As to `COc1ccc2c(-c3ccc(CNCCCN(C)C)cc3)nc(-c3ccc(CNCCCN(C)C)cc3)cc2c1` (as salt: (cooh)2) [Compound 2j, 6-Methoxy-1,3-bis{4-[(3-dimethylaminopropyl)aminomethyl]phenyl}isoquinoline], the melting point was in the range of 171 to 173 °C.
As for `COc1ccc2nc(-c3ccc(CNCCN4CCN(C)CC4)cc3)nc(-c3ccc(CNCCN4CCN(C)CC4)cc3)c2c1` (as salt: (cooh)2) [Compound 3l, 6-Methoxy-2,4-bis{4-[(2–(4-methylpiperazin-1-yl)ethyl)aminomethyl]phenyl}quinazoline], the melting point was in the range of 229 to 231 °C.
For `c1cc(CNCCN2CCOCC2)cc(-c2nc(-c3cccc(CNCCN4CCOCC4)c3)c3ccccc3n2)c1` (as salt: (cooh)2) [Compound 3v, 2,4-Bis{3-[(2-morpholinoethyl)aminomethyl]phenyl}quinazoline], the melting point is 234 to 236 °C.
`COc1ccc2nc(-c3ccc(CNCCCN4CCN(C)CC4)cc3)cc(-c3ccc(CNCCCN4CCN(C)CC4)cc3)c2c1` (as salt: (cooh)2) [Compound 1l, 6-Methoxy-2,4-bis{4-[(3–(4-methylpiperazin-1-yl)propyl)aminomethyl]phenyl}quinoline] came in with a melting point of 223 to 225 °C.
As for `COc1ccc2nc(-c3ccc(CNCCCCN(C)C)cc3)nc(-c3ccc(CNCCCCN(C)C)cc3)c2c1` (as salt: (cooh)2) [Compound 3h, 6-Methoxy-2,4-bis{4-[(4-dimethylaminobutyl)aminomethyl]phenyl}quinazoline], the figure is 156 to 158 °C.
`COc1ccc2c(-c3ccc(CNCCN(C)C)cc3)nc(-c3ccc(CNCCN(C)C)cc3)nc2c1` (as salt: (cooh)2) [Compound 3o, 7-Methoxy-2,4-bis{4-[(2-dimethylaminoethyl)aminomethyl]phenyl}quinazoline] showed a melting point of 234 to 236 °C.
In turn, `COc1ccc2c(-c3ccc(CNCCCCN(C)C)cc3)cc(-c3ccc(CNCCCCN(C)C)cc3)nc2c1` (as salt: (cooh)2) [Compound 1m, 7-Methoxy-2,4-bis{4-[(4-dimethylaminobutyl)aminomethyl]phenyl}quinoline] displayed a melting point of 208 to 210 °C.
Molecule `CN1CCN(CCCNCc2cccc(-c3nc(-c4cccc(CNCCCN5CCN(C)CC5)c4)c4ccccc4n3)c2)CC1` (as salt: (cooh)2) [Compound 3t, 2,4-Bis{3-[(3–(4-methylpiperazin-1-yl)propyl)aminomethyl]phenyl}quinazoline] yielded a melting point of 252 to 254 °C.
Turning to `COc1ccc2c(-c3ccc(CNCCN4CCN(C)CC4)cc3)nc(-c3ccc(CNCCN4CCN(C)CC4)cc3)nc2c1` (as salt: (cooh)2) [Compound 3r, 7-Methoxy-2,4-bis{4-[(2–(4-methylpiperazin-1-yl)ethyl)aminomethyl]phenyl}quinazoline], the melting point fell in the range of 238 to 240 °C.
As for `CN(C)CCCNCc1ccc(-c2cc(-c3ccc(CNCCCN(C)C)cc3)c3ccccc3n2)cc1` (as salt: (cooh)2) [Compound 1b, 2,4-Bis{4-[(3-dimethylaminopropyl)aminomethyl]phenyl}quinoline], the figure is 244 to 246 °C; as for `CN(C)CCCNCc1ccc(-c2cc3ccccc3c(-c3ccc(CNCCCN(C)C)cc3)n2)cc1` (as salt: (cooh)2) [Compound 2b, 1,3-Bis{4-[(3-dimethylaminopropyl)aminomethyl]phenyl}isoquinoline], 186 to 188 °C; as for `COc1ccc2nc(-c3ccc(CNCCCCN4CCN(C)CC4)cc3)cc(-c3ccc(CNCCCCN4CCN(C)CC4)cc3)c2c1` (as salt: (cooh)2) [Compound 1k, 6-Methoxy-2,4-bis{4-[(4–(4-methylpiperazin-1-yl)butyl)aminomethyl]phenyl}quinoline], 235 to 237 °C.
Consider `c1ccc2c(-c3ccc(CNCCCN4CCOCC4)cc3)nc(-c3ccc(CNCCCN4CCOCC4)cc3)nc2c1` (as salt: (cooh)2) [Compound 3f, 2,4-Bis{4-[(3-morpholinopropyl)aminomethyl]phenyl}quinazoline], for which the melting point fell in the range of 183 to 185 °C.
For `COc1ccc2c(-c3ccc(CNCCCCN4CCN(C)CC4)cc3)nc(-c3ccc(CNCCCCN4CCN(C)CC4)cc3)nc2c1` (as salt: (cooh)2) [Compound 3p, 7-Methoxy-2,4-bis{4-[(4–(4-methylpiperazin-1-yl)butyl)aminomethyl]phenyl}quinazoline], the melting point fell in the range of 222 to 224 °C.
As for `CN1CCN(CCCNCc2ccc(-c3cc4ccccc4c(-c4ccc(CNCCCN5CCN(C)CC5)cc4)n3)cc2)CC1` (as salt: (cooh)2) [Compound 2d, 1,3-Bis{4-[(3–(4-methylpiperazin-1-yl)propyl)aminomethyl]phenyl}isoquinoline], the melting point lay within 217 to 219 °C.
The molecule `CN1CCN(CCCNCc2ccc(-c3cc(-c4ccc(CNCCCN5CCN(C)CC5)cc4)c4ccccc4n3)cc2)CC1` (as salt: (cooh)2) [Compound 1e, 2,4-Bis{4-[(3–(4-methylpiperazin-1-yl)propyl)aminomethyl]phenyl}quinoline] registered a melting point of 249 to 251 °C.
Turning to `CN(C)CCCNCc1ccc(-c2nc(-c3ccc(CNCCCN(C)C)cc3)c3ccccc3n2)cc1` (as salt: (cooh)2) [Compound 3b, 2,4-Bis{4-[(3-dimethylaminopropyl)aminomethyl]phenyl}quinazoline], the melting point was in the range of 203 to 205 °C.
The molecule `CN1CCN(CCCNCc2ccc(-c3nc(-c4ccc(CNCCCN5CCN(C)CC5)cc4)c4ccccc4n3)cc2)CC1` (as salt: (cooh)2) [Compound 3e, 2,4-Bis{4-[(3–(4-methylpiperazin-1-yl)propyl)aminomethyl]phenyl}quinazoline] showed a melting point of 229 to 231 °C.
Regarding `COc1ccc2c(-c3ccc(CNCCCCN4CCN(C)CC4)cc3)nc(-c3ccc(CNCCCCN4CCN(C)CC4)cc3)cc2c1` (as salt: (cooh)2) [Compound 2k, 6-Methoxy-1,3-bis{4-[(4–(4-methylpiperazin-1-yl)butyl)aminomethyl]phenyl}isoquinoline], the melting point was in the range of 216 to 218 °C.
Regarding `c1cc(CNCCCN2CCOCC2)cc(-c2cc(-c3cccc(CNCCCN4CCOCC4)c3)c3ccccc3n2)c1` (as salt: (cooh)2) [Compound 1s, 2,4-Bis{3-[(3-morpholinopropyl)aminomethyl]phenyl}quinoline], the melting point is 221 to 223 °C.
The molecule `CN(C)CCNCc1ccc(-c2nc(-c3ccc(CNCCN(C)C)cc3)c3ccccc3n2)cc1` (as salt: (cooh)2) [Compound 3c, 2,4-Bis{4-[(2-dimethylaminoethyl)aminomethyl]phenyl}quinazoline] showed a melting point of 203 to 205 °C.
In the case of `COc1ccc2c(-c3ccc(CNCCCCN4CCN(C)CC4)cc3)cc(-c3ccc(CNCCCCN4CCN(C)CC4)cc3)nc2c1` (as salt: (cooh)2) [Compound 1o, 7-Methoxy-2,4-bis{4-[(4–(4-methylpiperazin-1-yl)butyl)aminomethyl]phenyl}quinoline] it was 237 to 239 °C; in that of `COc1ccc2c(-c3ccc(CNCCCN4CCN(C)CC4)cc3)cc(-c3ccc(CNCCCN4CCN(C)CC4)cc3)nc2c1` (as salt: (cooh)2) [Compound 1p, 7-Methoxy-2,4-bis{4-[(3–(4-methylpiperazin-1-yl)propyl)aminomethyl]phenyl}quinoline], 245 to 247 °C.
The molecule `COc1ccc2nc(-c3ccc(CNCCCCN(C)C)cc3)cc(-c3ccc(CNCCCCN(C)C)cc3)c2c1` (as salt: (cooh)2) [Compound 1i, 6-Methoxy-2,4-bis{4-[(4-dimethylaminobutyl)aminomethyl]phenyl}quinoline] registered a melting point of 227 to 229 °C.
On to `COc1ccc2nc(-c3ccc(CNCCCN(C)C)cc3)nc(-c3ccc(CNCCCN(C)C)cc3)c2c1` (as salt: (cooh)2) [Compound 3i, 6-Methoxy-2,4-bis{4-[(3-dimethylaminopropyl)aminomethyl]phenyl}quinazoline], for which the melting point is 243 to 245 °C.
